Measured values taken from patent US5015631A, “Repairing agent for cells and tissues” (MECT Corporation, priority 1987, dated 1991).

Test system: mice
Test: Simple acute toxicity test by intravenous injection in mice
Format: in vivo, Male ddy mice
Conditions: for Final death rate / Number of death with the elapse of time: 3 mice
Method: Simple acute toxicity test:
Simple acute toxicity tests of the materials were conducted by intraveous injections for the mice as follows:
Lithium, potassium, barium and magnesium N-acetylneuraminates (products of MECT Corporation) were used.
Weight of the animal in the initial stage of the test: 17.7 to 21.1 g
Number of mice for each level: 3
(3) Room temperature: 23±1° C., humidity: 55±7%
(4) Route of administration: intravenous injection
The material was dissolved in the physiological saline. The concentration of the dose solution was adjusted so that 0.2 ml of the dose solution was administered per 20 g of the body weight of the mice. The solution was given to a tail of each mouse by the intravenous injection. The dose was 500, 1000 or 2000 mg/kg.
The general symptoms and death were observed from immediately after the administration to seven days after the administration.

CC(=O)N[C@H]1[C@H]([C@H](O)[C@H](O)CO)OC(O)(C(=O)[O-])C[C@@H]1O.[K+] (stereo partly shown) [Potassium N-acetylneuraminate]
Final death rate (500 mg/kg i.v.): 0/3
Number of death with the elapse of time (500 mg/kg i.v., 1 hr): 0
Number of death with the elapse of time (500 mg/kg i.v., 3 hrs): 0
Number of death with the elapse of time (500 mg/kg i.v., 6 hrs): 0
Number of death with the elapse of time (500 mg/kg i.v., 24 hrs): 0
Number of death with the elapse of time (500 mg/kg i.v., 2 days): 0
Number of death with the elapse of time (500 mg/kg i.v., 3 days): 0
Number of death with the elapse of time (500 mg/kg i.v., 4 days): 0
Number of death with the elapse of time (500 mg/kg i.v., 5 days): 0
Number of death with the elapse of time (500 mg/kg i.v., 6 days): 0
Number of death with the elapse of time (500 mg/kg i.v., 7 days): 0
Final death rate (1000 mg/kg i.v.): 3/3
Number of death with the elapse of time (1000 mg/kg i.v., 1 hr): 3
Number of death with the elapse of time (1000 mg/kg i.v., 3 hrs): 0
Number of death with the elapse of time (1000 mg/kg i.v., 6 hrs): 0
Number of death with the elapse of time (1000 mg/kg i.v., 24 hrs): 0
Number of death with the elapse of time (1000 mg/kg i.v., 2 days): 0
Number of death with the elapse of time (1000 mg/kg i.v., 3 days): 0
Number of death with the elapse of time (1000 mg/kg i.v., 4 days): 0
Number of death with the elapse of time (1000 mg/kg i.v., 5 days): 0
Number of death with the elapse of time (1000 mg/kg i.v., 6 days): 0
Number of death with the elapse of time (1000 mg/kg i.v., 7 days): 0
Death (1000 mg/kg or 2000 mg/kg i.v.): all of the three mice died
Final death rate (2000 mg/kg i.v.): 3/3
Number of death with the elapse of time (2000 mg/kg i.v., 1 hr): 3
Number of death with the elapse of time (2000 mg/kg i.v., 3 hrs): 0
Number of death with the elapse of time (2000 mg/kg i.v., 6 hrs): 0
Number of death with the elapse of time (2000 mg/kg i.v., 24 hrs): 0
Number of death with the elapse of time (2000 mg/kg i.v., 2 days): 0
Number of death with the elapse of time (2000 mg/kg i.v., 3 days): 0
Number of death with the elapse of time (2000 mg/kg i.v., 4 days): 0
Number of death with the elapse of time (2000 mg/kg i.v., 5 days): 0
Number of death with the elapse of time (2000 mg/kg i.v., 6 days): 0
Number of death with the elapse of time (2000 mg/kg i.v., 7 days): 0

CC(=O)N[C@H]1[C@H]([C@H](O)[C@H](O)CO)OC(O)(C(=O)O)C[C@@H]1O (stereo partly shown) [Magnesium N-acetylneuraminate]
Final death rate (500 mg/kg i.v.): 0/3
Number of death with the elapse of time (500 mg/kg i.v., 1 hr): 0
Number of death with the elapse of time (500 mg/kg i.v., 3 hrs): 0
Number of death with the elapse of time (500 mg/kg i.v., 6 hrs): 0
Number of death with the elapse of time (500 mg/kg i.v., 24 hrs): 0
Number of death with the elapse of time (500 mg/kg i.v., 2 days): 0
Number of death with the elapse of time (500 mg/kg i.v., 3 days): 0
Number of death with the elapse of time (500 mg/kg i.v., 4 days): 0
Number of death with the elapse of time (500 mg/kg i.v., 5 days): 0
Number of death with the elapse of time (500 mg/kg i.v., 6 days): 0
Number of death with the elapse of time (500 mg/kg i.v., 7 days): 0

CC(=O)N[C@H]1[C@H]([C@H](O)[C@H](O)CO)OC(O)(C(=O)O)C[C@@H]1O (stereo partly shown) [Barium N-acetylneuraminate]
Final death rate (500 mg/kg i.v.): 3/3
Number of death with the elapse of time (500 mg/kg i.v., 1 hr): 3
Number of death with the elapse of time (500 mg/kg i.v., 3 hrs): 0
Number of death with the elapse of time (500 mg/kg i.v., 6 hrs): 0
Number of death with the elapse of time (500 mg/kg i.v., 24 hrs): 0
Number of death with the elapse of time (500 mg/kg i.v., 2 days): 0
Number of death with the elapse of time (500 mg/kg i.v., 3 days): 0
Number of death with the elapse of time (500 mg/kg i.v., 4 days): 0
Number of death with the elapse of time (500 mg/kg i.v., 5 days): 0
Number of death with the elapse of time (500 mg/kg i.v., 6 days): 0
Number of death with the elapse of time (500 mg/kg i.v., 7 days): 0
Number of death with the elapse of time (1000 mg/kg i.v., 1 hr): 3
Number of death with the elapse of time (1000 mg/kg i.v., 3 hrs): 0
Number of death with the elapse of time (1000 mg/kg i.v., 6 hrs): 0
Number of death with the elapse of time (1000 mg/kg i.v., 24 hrs): 0
Number of death with the elapse of time (1000 mg/kg i.v., 2 days): 0
Number of death with the elapse of time (1000 mg/kg i.v., 3 days): 0
Number of death with the elapse of time (1000 mg/kg i.v., 4 days): 0
Number of death with the elapse of time (1000 mg/kg i.v., 5 days): 0
Number of death with the elapse of time (1000 mg/kg i.v., 6 days): 0
Number of death with the elapse of time (1000 mg/kg i.v., 7 days): 0
Number of death with the elapse of time (2000 mg/kg i.v., 1 hr): 3
Number of death with the elapse of time (2000 mg/kg i.v., 3 hrs): 0
Number of death with the elapse of time (2000 mg/kg i.v., 6 hrs): 0
Number of death with the elapse of time (2000 mg/kg i.v., 24 hrs): 0
Number of death with the elapse of time (2000 mg/kg i.v., 2 days): 0
Number of death with the elapse of time (2000 mg/kg i.v., 3 days): 0
Number of death with the elapse of time (2000 mg/kg i.v., 4 days): 0
Number of death with the elapse of time (2000 mg/kg i.v., 5 days): 0
Number of death with the elapse of time (2000 mg/kg i.v., 6 days): 0
Number of death with the elapse of time (2000 mg/kg i.v., 7 days): 0
